Results taken from patent publication EP0891773A1, “Use of gamma-linolenic acid for preventing oxydative stress” (priority 1997, dated 1999).
Like-named read-outs stand apart in the source and are kept apart here.

Test system: fibroblastes dermiques humains normaux
Assay: Protective effect on normal human dermal fibroblasts under oxidative stress (TBH 10^-4 M, 1 h); cell viability by neutral red uptake
Assay type: cell-based
Details: for activity at 0.1 µM: 0,1 µM
Method: Mesure de l'effet protecteur de l'acide γ-linolénique sur des fibroblastes dermiques humains normaux soumis à un stress oxydatif:
Des cultures de fibroblastes dermiques humains normaux sont réalisées selon la méthode décrite par Gilchrest B. A. dans J. Gerontol., vol.35, pp. 537-541, 1980.
A J(0) on ensemence des plaques multipuits de type COSTAR à raison de 50000 cellules par puits. Les cellules sont cultivées dans du milieu MEM Eagle (GIBCO) contenant 10% de sérum de veau foetal, 2 mM de L-glutamine, 1% acides aminés non essentiels, 1 mM pyruvate de sodium et 1% d'un mélange antibiotiques/antimicotiques vendu par la société GIBCO.
A J(+1) le milieu de culture est remplacé par du milieu MEM sans sérum de veau foetal contenant ou ne contenant pas (témoin) la substance à tester.
Des solutions d'acides gras essentiels sont préparés dans des solutions à 0.1 % d'albumine humaine. Les solutions mères sont à 2. 10^-3 M , la dilution minimale est à 10^-4 M dans le milieu de culture sans sérum de veau foetal. L'addition de vitamine E à 30 µM final permet d'éviter les problèmes d'autooxydation des acides gras. Les cellules sont traitées 3 jours sans changement de milieu.
Un stress oxydatif est induit à J(+4). Pour cela, le milieu de culture est retiré et les plaques sont rincées avec du tampon phosphate salin (PBS). 50% des puits sont traités par une solution de terbutyl hydroperoxyde (TBH) à 10^-4 M, les 2 autres puits étant laissés en PBS et l'incubation se poursuit pendant une heure dans un incubateur à 37°C en atmosphère contenant 5% de CO2.
Au bout d'une heure, les plaques sont rincées 3 fois au PBS pour enlever toute trace de TBH. Une solution mère de rouge neutre à […] est diluée au 1/40 dans un milieu minimum (MEM de marque GIBCO). La solution diluée est placée 1h au bain marie à 37°C pour une bonne dissolution puis filtrée sur 0.22 µm pour éliminer les cristaux résiduels. La solution ainsi préparée est ajoutée sur les cellules et les plaques sont mises à l'incubateur à 37°C en atmosphère contenant 5% de CO2 pour 3 h. Après incubation les plaques sont vidées de leur milieu et rincées au PBS. Une solution à 0.4% de formaldéhyde et 1% de chlorure de calcium dans de l'eau est ajoutée dans chaque puits pour une durée de 1 minute. On remplace alors cette solution par une solution à 49% d'éthanol pur dans l'eau et 1% d'acide acétique glacial. On laisse la coloration se développer 30 mn à température ambiante et on lit les plaques au spectrophotomètre à 540 nm.
Pour chaque condition (traité ou témoin), le calcul est effectué de la manière suivante :
Proportion de cellules stressées : rapport de la moyenne des densités optiques mesurées pour les puits traités sur la moyenne des densités optiques mesurées pour les puits non traités.
Pourcentage de résistance : Proportion de cellules stressées dans l'essai sur proportion de cellules stressées dans le témoin x 100
Par ce calcul, le témoin est considéré à 100 % de protection contre le stress oxydatif et les produits présentent un effet protecteur supérieur ou inférieur au témoin.

[1] = Fibroblast, table a, comparison of essential fatty acids, 10 µM, 3 days pretreatment, then TBH 10^-4 M 1 h, control = 100, read-out: Pourcentage de résistance
[2] = Fibroblast, table c, comparison with known antioxidants, 10 µM, control = 100, read-out: Pourcentage de résistance
[3] = Fibroblast, table c, comparison with known antioxidants, 100 µM, control = 100, read-out: Pourcentage de résistance
[4] = Fibroblast, table c, comparison with known antioxidants, 1 mM, control = 100, read-out: Pourcentage de résistance

## CCCCC/C=C\C/C=C\CCCCCCCC(=O)O [Acide Linoléique]
[1]
  activity at 10 µM: 100%

## CCCCC/C=C\C/C=C\C/C=C\CCCCC(=O)O [Acide γ-Linolénique, acide γ-linolénique]
Fibroblast, table b, dose effect, 0,01 µM, control = 100, read-out: Pourcentage de résistance
  activity at 0.01 µM: 123%
Fibroblast, table b, dose effect, control = 100, read-out: Pourcentage de résistance
  activity at 0.1 µM: 130%
Fibroblast, table b, dose effect, 1 µM, control = 100, read-out: Pourcentage de résistance
  activity at 1 µM: 119%
Fibroblast, table b, dose effect, 10 µM, control = 100, read-out: Pourcentage de résistance
  activity at 10 µM: 121%
Fibroblast, table b, dose effect, 100 µM, control = 100, read-out: Pourcentage de résistance
  activity at 100 µM: 95%
Fibroblast, table c, comparison with known antioxidants, control = 100, read-out: Pourcentage de résistance
  activity at 0.1 µM: 112%
[1]
  activity at 10 µM: 124%
Concentration of maximum effect in the dose-effect test (table b)
  effet maximum: 0,1 µM
Conclusion in words on table a (10 µM), only this fatty acid among those tested
  résistance au stress oxydatif: augmente la résistance au stress oxydatif
Conclusion in words on table c, versus reference antioxidants
  effet protecteur du stress oxydatif: comparable à celui de molécules reconnues comme anti-oxydants de référence

## N[C@@H](CCC(=O)N[C@@H](CS)C(=O)NCC(=O)O)C(=O)O [Glutathion]
[2]
  activity at 10 µM: 95%
[3]
  activity at 100 µM: 93%
[4]
  activity at 1000 µM: 100%

## CC(=O)N[C@@H](CS)C(=O)O [N-Acétyl cystéine]
[2]
  activity at 10 µM: 94%
[3]
  activity at 100 µM: 103%
[4]
  activity at 1000 µM: 107%

## S=C(S)N1CCCC1 [Pyrrolidine dithiocarbamate]
Fibroblast, table c, comparison with known antioxidants, 20 µM, control = 100, read-out: Pourcentage de résistance
  activity at 20 µM: 97%
[3]
  activity at 100 µM: 112%

## Vitamine E
Table c, comparison with known antioxidants, 10 µM, control = 100
  Pourcentage de résistance: 112%
Table c, comparison with known antioxidants, 100 µM, control = 100
  Pourcentage de résistance: 107%
Table c, comparison with known antioxidants, 1 mM, control = 100
  Pourcentage de résistance: 111%
